# Legend:
# Carbonic anhydrase 9 [1] = target: T1, Carbonic anhydrase 9 (Homo sapiens, UniProt Q16790); test: Inhibition of human carbonic anhydrase 9 using 4-NPA as substrate after 3 mins by spectrophotometric analysis
# [2] = Ratio of IC50 for HEK293 cells to IC50 for human HepG2 cells; assay type: toxicity; settings: HEK293 cells versus HepG2 cells, read-out: Ratio IC50
# HEK293 = test: Cytotoxicity against human HEK293 cells after 48 hrs by MTT assay; assay type: cell-based; settings: HEK293, 48 h
# [3] = Ratio of IC50 for HEK293 cells to IC50 for human MCF7 cells; assay type: toxicity; settings: HEK293 cells versus MCF7 cells, read-out: Ratio IC50
# MCF7 = test: Cytotoxicity against human MCF7 cells after 48 hrs by MTT assay; assay type: functional, cell-based; settings: MCF7, 48 h
# HepG2 = test: cells; settings: Homo sapiens, HepG2, 48 h
# Description: Cytotoxicity against human HepG2 cells after 48 hrs by MTT assay
# Carbonic anhydrase 2 = Carbonic anhydrase 2 (Homo sapiens, UniProt P00918); test: Inhibition of human carbonic anhydrase 2 using 4-NPA as substrate after 3 mins by spectrophotometric analysis
# Carbonic anhydrase 9 [4] = target: T1, Carbonic anhydrase 9; test: Binding affinity to human carbonic anhydrase 9 by spectrofluorimetric analysis
smiles,measurement,setting,value
S=C(NCc1ccncc1)Nc1ccccc1,IC50,Carbonic anhydrase 9 [1],17.9 µM
same,selectivity ratio,[2],2.4
same,IC50,HEK293,47.2 µM
same,selectivity ratio,[3],1.2
same,IC50,MCF7,37.3 µM
same,IC50,HepG2,19.3 µM
CC(C)c1ccc(/C=C2/S/C(=N/c3ccccc3)N(Cc3ccncc3)C2=O)cc1,IC50,Carbonic anhydrase 9 [1],63.1 µM
same,selectivity ratio,[2],4.2
same,IC50,HEK293,137 µM
same,selectivity ratio,[3],2.5
same,IC50,MCF7,53.3 µM
same,IC50,HepG2,32.3 µM
COc1cc(/C=C2/S/C(=N/c3ccccc3)N(Cc3ccncc3)C2=O)ccc1O,IC50,Carbonic anhydrase 9 [1],60.9 µM
same,selectivity ratio,[2],2.3
same,IC50,HEK293,67.4 µM
same,selectivity ratio,[3],2.4
same,IC50,MCF7,28 µM
same,IC50,HepG2,28.6 µM
O=C1/C(=C\c2ccccc2)S/C(=N/c2ccccc2)N1Cc1ccncc1,IC50,Carbonic anhydrase 9 [1],50.9 µM
same,selectivity ratio,[2],2.5
same,IC50,HEK293,64.7 µM
same,selectivity ratio,[3],2.4
same,IC50,MCF7,26.4 µM
same,IC50,HepG2,25.2 µM
Cc1ccc(/C=C2/S/C(=N/c3ccccc3)N(Cc3ccncc3)C2=O)s1,IC50,Carbonic anhydrase 9 [1],10 µM
same,selectivity ratio,[2],6.3
same,IC50,HEK293,146 µM
same,selectivity ratio,[3],5.1
same,IC50,MCF7,28.7 µM
same,IC50,HepG2,23.1 µM
O=C1/C(=C\c2cccc(Cl)c2)S/C(=N/c2ccccc2)N1Cc1ccncc1,IC50,Carbonic anhydrase 9 [1],43.5 µM
same,selectivity ratio,[2],2.4
same,IC50,HEK293,71.8 µM
same,selectivity ratio,[3],2.4
same,IC50,MCF7,29.8 µM
same,IC50,HepG2,28.9 µM
O=C1/C(=C\c2ccc(Cl)cc2)S/C(=N/c2ccccc2)N1Cc1ccncc1,IC50,Carbonic anhydrase 9 [1],40.2 µM
same,selectivity ratio,[2],1.4
same,IC50,HEK293,42.3 µM
same,selectivity ratio,[3],1.1
same,IC50,MCF7,54.9 µM
same,IC50,HepG2,28.8 µM
COc1ccc(OC)c(/C=C2/S/C(=N/c3ccccc3)N(Cc3ccncc3)C2=O)c1,IC50,Carbonic anhydrase 9 [1],16.7 µM
same,selectivity ratio,[2],2.2
same,IC50,HEK293,80.1 µM
same,selectivity ratio,[3],2.1
same,IC50,MCF7,37 µM
same,IC50,HepG2,35.8 µM
O=C1/C(=C\c2ccc(O)cc2)S/C(=N/c2ccccc2)N1Cc1ccncc1,IC50,Carbonic anhydrase 9 [1],6.72 µM
same,selectivity ratio,[2],12
same,IC50,HEK293,142 µM
same,selectivity ratio,[3],7.5
same,IC50,MCF7,18.9 µM
same,IC50,HepG2,11.8 µM
CN(C)c1ccc(/C=C2/S/C(=N/c3ccccc3)N(Cc3ccncc3)C2=O)cc1,IC50,Carbonic anhydrase 9 [1],32.9 µM
same,selectivity ratio,[2],2.3
same,IC50,HEK293,122 µM
same,selectivity ratio,[3],1.6
same,IC50,MCF7,76.3 µM
same,IC50,HepG2,52.6 µM
COc1ccc(/C=C2/S/C(=N/c3ccccc3)N(Cc3ccncc3)C2=O)cc1OC,IC50,Carbonic anhydrase 9 [1],20.9 µM
same,selectivity ratio,[2],5.9
same,IC50,HEK293,171 µM
same,selectivity ratio,[3],2.1
same,IC50,MCF7,80.7 µM
same,IC50,HepG2,28.9 µM
O=C1/C(=C\c2ccc3c(c2)OCO3)S/C(=N/c2ccccc2)N1Cc1ccncc1,IC50,Carbonic anhydrase 9 [1],58.4 µM
same,selectivity ratio,[2],2.6
same,IC50,HEK293,64.8 µM
same,selectivity ratio,[3],1.8
same,IC50,MCF7,35.2 µM
same,IC50,HepG2,24.4 µM
O=C1CS/C(=N/c2ccccc2)N1Cc1ccncc1,IC50,Carbonic anhydrase 9 [1],26.1 µM
same,selectivity ratio,[2],3.8
same,IC50,HEK293,99.5 µM
same,selectivity ratio,[3],1.5
same,IC50,MCF7,65.8 µM
same,IC50,HepG2,26 µM
O=C1/C(=C\c2cccc(O)c2)S/C(=N/c2ccccc2)N1Cc1ccncc1,IC50,Carbonic anhydrase 9 [1],10.8 µM
same,selectivity ratio,[2],8.5
same,IC50,HEK293,150 µM
same,selectivity ratio,[3],3.4
same,IC50,MCF7,43.6 µM
same,IC50,HepG2,17.6 µM
O=C1/C(=C\c2ccc(O)c(O)c2)S/C(=N/c2ccccc2)N1Cc1ccncc1,IC50,Carbonic anhydrase 9 [1],1.84 µM
same,IC50,Carbonic anhydrase 2,27.2 µM
same,selectivity ratio,[2],14.2
same,IC50,HEK293,230 µM
same,selectivity ratio,[3],18.5
same,IC50,MCF7,12.4 µM
same,IC50,Carbonic anhydrase 9 [4],2.32 µM
same,IC50,HepG2,16.2 µM
COc1ccc(/C=C2/S/C(=N/c3ccccc3)N(Cc3ccncc3)C2=O)cc1,IC50,Carbonic anhydrase 9 [1],40.4 µM
same,selectivity ratio,[2],2.5
same,IC50,HEK293,47.9 µM
same,selectivity ratio,[3],1.5
same,IC50,MCF7,31.5 µM
same,IC50,HepG2,19.1 µM
CCOc1cc(/C=C2/S/C(=N/c3ccccc3)N(Cc3ccncc3)C2=O)ccc1O,IC50,Carbonic anhydrase 9 [1],38.4 µM
same,selectivity ratio,[2],2.2
same,IC50,HEK293,46.5 µM
same,selectivity ratio,[3],2.3
same,IC50,MCF7,20.1 µM
same,IC50,HepG2,20.4 µM
O=C1/C(=C\c2ccccn2)S/C(=N/c2ccccc2)N1Cc1ccncc1,IC50,Carbonic anhydrase 9 [1],6.64 µM
same,selectivity ratio,[2],5.2
same,IC50,HEK293,161 µM
same,selectivity ratio,[3],7.6
same,IC50,MCF7,21.1 µM
same,IC50,HepG2,31 µM
Cc1ccc(/C=C2/S/C(=N/c3ccccc3)N(Cc3ccncc3)C2=O)cc1,IC50,Carbonic anhydrase 9 [1],57.3 µM
same,selectivity ratio,[2],2.5
same,IC50,HEK293,49.5 µM
same,selectivity ratio,[3],1.3
same,IC50,MCF7,36.9 µM
same,IC50,HepG2,19.7 µM
O=C1/C(=C\c2ccc([N+](=O)[O-])cc2)S/C(=N/c2ccccc2)N1Cc1ccncc1,IC50,Carbonic anhydrase 9 [1],1.61 µM
same,IC50,Carbonic anhydrase 2,14.4 µM
same,selectivity ratio,[2],13.2
same,IC50,HEK293,250 µM
same,selectivity ratio,[3],19.2
same,IC50,MCF7,13 µM
same,IC50,Carbonic anhydrase 9 [4],11.2 µM
same,IC50,HepG2,18.9 µM
COc1cccc2c1C(=O)c1c(O)c3c(c(O)c1C2=O)C[C@@](O)(C(=O)CO)C[C@@H]3O[C@H]1C[C@H](N)[C@H](O)[C@H](C)O1 [DOXORUBICIN],IC50,HEK293,148 µM

# Source: ChEMBL document CHEMBL4145457, “Design, synthesis and biological evaluation of novel pyridine-thiazolidinone derivatives as anticancer agents: Targeting human carbonic anhydrase IX” (Eur J Med Chem, 2018)
